Data: patent US5892099A, “3,7-dithiaprostanoic acid derivative” (Ono Pharmaceutical Co., Ltd., priority 1997, dated 1999)

Key:
mouse EP3α = biological target: T1, mouse EP3α (Mus musculus, UniProt P30557); assay: Binding assay using expression cell of the prostanoid receptor subtype (EP3α), competition of specific 3H-PGE2 binding; settings: membrane fraction of EP3α expressing CHO cells; 2.5 nM 3H-PGE2; pH 6.0; 1 hour at room temperature; read-out: Dissociation constant for EP3α Ki
T1 construct: expressed in transfected cells; host or cells: CHO cells
T1 sequence (P30557 1-365): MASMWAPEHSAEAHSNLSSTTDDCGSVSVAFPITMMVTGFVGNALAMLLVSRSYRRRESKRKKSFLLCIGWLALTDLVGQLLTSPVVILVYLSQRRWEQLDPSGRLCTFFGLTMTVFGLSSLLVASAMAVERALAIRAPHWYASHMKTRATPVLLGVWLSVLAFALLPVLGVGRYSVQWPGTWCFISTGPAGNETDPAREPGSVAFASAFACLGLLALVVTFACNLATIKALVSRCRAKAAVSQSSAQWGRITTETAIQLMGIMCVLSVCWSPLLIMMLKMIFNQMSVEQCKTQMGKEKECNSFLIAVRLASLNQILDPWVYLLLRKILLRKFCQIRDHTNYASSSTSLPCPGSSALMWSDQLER
Protocol: (§1) (I) Binding assay using expression cell of the prostanoid receptor subtype
(§2) The preparation of membrane fraction was carried out according to the method of Sugimoto et al (J. Biol. Chem. 267, 6463-6466 (1992)) using the prostanoid receptor subtypes (mouse EP3α, EP4) expressing CHO cells.
(§3) The standard assay mixture containing membrane fraction (0.5 mg/ml) and ^3 H-PGE2 in a final volume of 200 μl was incubated for 1 hour at room temperature. The reaction was terminated by the addition of 3 ml of ice-cold buffer. The mixture was rapidly filtered through a GF/B glass filter. The radioactivity associated with the filter was measured by liquid scintillation counting.
(§4) Kd and Bmax value were determined from Scatchard plots (Ann. N. Y. Sci., 51, 660 (1949)). Non-specific binding was calculated as the bound in the presence of an excess (2.5 μM) of unlabeled PGE2.
(§5) In the experiment for competition of specific ^3 H-PGE2 binding by the compounds of the present invention, 2.5 nM of ^3 H-PGE2 and various concentration of the compounds of the present invention were added. The following buffer was used in all reactions. Buffer: 10 mM potassium phosphate (pH 6.0), 1 mM EDTA, 10 mM MgCl2, 0.1M NaCl. The dissociation constant (Ki) of each compound was calculated by the following equation.

mouse EP4 = biological target: T2, mouse EP4 (Mus musculus, UniProt P32240); assay: Binding assay using expression cell of the prostanoid receptor subtype (EP4), competition of specific 3H-PGE2 binding; settings: membrane fraction of EP4 expressing CHO cells; 2.5 nM 3H-PGE2; pH 6.0; 1 hour at room temperature; read-out: Dissociation constant for EP4 Ki
T2 construct: expressed in transfected cells; host or cells: CHO cells
Protocol: as §1, §2, §3, §4, §5

T2 sequence (P32240 whole entry): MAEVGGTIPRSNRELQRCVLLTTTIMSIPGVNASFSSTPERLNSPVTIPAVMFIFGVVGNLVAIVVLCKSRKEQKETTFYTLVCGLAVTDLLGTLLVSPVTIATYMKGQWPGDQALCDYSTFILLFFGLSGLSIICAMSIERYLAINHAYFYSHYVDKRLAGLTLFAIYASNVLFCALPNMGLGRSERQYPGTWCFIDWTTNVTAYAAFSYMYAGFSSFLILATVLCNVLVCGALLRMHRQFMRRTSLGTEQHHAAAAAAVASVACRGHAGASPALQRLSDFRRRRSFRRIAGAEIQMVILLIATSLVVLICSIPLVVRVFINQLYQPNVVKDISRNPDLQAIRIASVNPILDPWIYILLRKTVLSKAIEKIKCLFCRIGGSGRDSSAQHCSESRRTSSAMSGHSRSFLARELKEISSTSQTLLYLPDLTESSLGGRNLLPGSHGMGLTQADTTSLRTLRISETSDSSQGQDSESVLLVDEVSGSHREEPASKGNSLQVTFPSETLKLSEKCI

Row | SMILES | Ki (mouse EP3α) | Ki (mouse EP4)
1 | CCCCC[C@H](O)CC[C@@H]1C(SCCCSCC(=O)O)C(=O)C[C@H]1O (stereo partly drawn) [Example 2(d), 11α,15α-dihydroxy-9-oxo-3,7-dithiaprostanoic acid] |  | 1.6 nM
2 | CC/C=C\CC(O)/C=C/C1C(O)CC(=O)C1SCCCSCC(=O)O (stereo not drawn) [Example 2(e), 11α,15α-dihydroxy-9-oxo-3,7-dithiaprost-13E,17Z-dienoic acid] |  | 0.91 nM
3 | O=C(O)CSCCCSC1C(=O)CC(O)C1/C=C/C(O)Cc1ccccc1 (stereo not drawn) [Example 2(f), 11α,15α-dihydroxy-9-oxo-16-phenyl-17,18,19,20-tetranor-3,7-dithiaprost-13E-enoic acid] | 130 nM | 7 nM
4 | O=C(O)CSCCCSC1C(=O)CC(O)C1/C=C/C(O)CCc1ccccc1 (stereo not drawn) [Example 2(g), 11α,15α-dihydroxy-9-oxo-17-phenyl-18,19,20-trinor-3,7-dithiaprost-13E-enoic acid] |  | 6 nM
5 | O=C(O)CSCCCS[C@H]1C(=O)C[C@@H](O)[C@@H]1/C=C/[C@@H](O)C1CCCCC1 [Example 2(h), 11α,15α-dihydroxy-9-oxo-15-cyclohexyl-3,7-dithia-16,17,18,19,20-pentanorprost-13E-enoic acid] | 610 nM | 22 nM
6 | O=C(O)CSCCCSC1C(=O)CC(O)C1/C=C/C(O)CCCC1CC1 (stereo not drawn) [Example 2(q), 11α,15α-dihydroxy-9-oxo-19,20-methano-3,7-dithiaprost-13E-enoicacid] |  | 0.4 nM
7 | O=C(O)CSCCCSC1C(=O)CC(O)C1/C=C/C(O)CC1CCCC1 (stereo not drawn) [Example 2(t), 11α,15α-dihydroxy-9-oxo-16-cyclopentyl-3,7-dithia-17,18,19,20-tetranorprost-13E-enoic acid] |  | 4.2 nM

The remaining lines, values ahead:

Row | Ki (mouse EP3α) | Ki (mouse EP4) | SMILES
8 | 10 nM | 0.8 nM | CCCCC(C)CC(O)/C=C/C1C(O)CC(=O)C1SCCCSCC(=O)O (stereo not drawn) [Example 2(a), 11α,15α-dihydroxy-9-oxo-17β,20-dimethyl-3,7-dithiaprost-13E-enoic acid]
9 |  | 0.6 nM | CCCC[C@H](C)C[C@H](O)/C=C/[C@H]1[C@H](O)CC(=O)[C@@H]1SCCCSCC(=O)O [Example 2(b), 11α,15α-dihydroxy-9-oxo-17α,20-dimethyl-3,7-dithiaprost-13E-enoic acid]
10 |  | 5.6 nM | CCCCC(C)(O)C/C=C/C1C(O)CC(=O)C1SCCCSCC(=O)O (stereo not drawn) [Example 2(c), 11α,16β-dihydroxy-9-oxo-16α-methyl-3,7-dithiaprost-13E-enoic acid]
11 | 34 nM | 0.7 nM | CCCCC[C@](C)(O)/C=C/[C@H]1[C@H](O)CC(=O)[C@@H]1SCCCSCC(=O)O [Example 2(k), 11α,15α-dihydroxy-9-oxo-15β-methyl-3,7-dithiaprost-13E-enoic acid]
12 | 23 nM | 1.4 nM | CCCCC(O)/C=C/C1C(O)CC(=O)C1SCCCSCC(=O)O (stereo not drawn) [Example 2(m), 11α,15α-dihydroxy-9-oxo-3,7-dithia-20-norprost-13E-enoic acid]
13 | 25 nM | 0.2 nM | CCCC[C@H](C)[C@H](O)/C=C/[C@@H]1C(SCCCSCC(=O)O)C(=O)C[C@H]1O (stereo partly drawn) [Example 2(o), 11α,15α-dihydroxy-9-oxo-16β-methyl-3,7-dithiaprost-13E-enoic acid]
14 | 1500 nM | 0.7 nM | CCCCCC(O)/C=C/C1C(O)CC(=O)C1SCCCSCC(=O)O (stereo not drawn) [Example 2, 11α,15α-dihydroxy-9-oxo-3,7-dithiaprost-13E-enoic acid]
